Biological target: interaction between GST-MAGEA11 MHD and FAM-PCF11_4 peptide (MAGE-A11:PCF11) (Homo sapiens (Human), UniProt P43364)
Assay: TR-FRET dose response competition assay for disruption of MAGE-A11:PCF11 binding
Conditions: Dose response TR-FRET screening of nine scaffold groups against MAGE-A11:PCF11; read-out: consensus IC50
Excerpt: TR-FRET Assays and High-throughput Screen. Terbium-anti-GST antibody, 1 M Tris pH 7.5 1 M MgCl2 and 1 M DTT were purchased from Invitrogen (Carlsbad, CA), BSA was purchased from Sigma (St. Louis, MO). Dimethyl sulfoxide (DMSO) was purchased from Fisher Scientific (Pittsburgh, PA). Black 384-well low volume plates and 384-well polypropylene compound plates were purchased from Corning Incorporated (Tewksbury, MA). The St. Jude FDA drug and Bioactive library (11,293 chemicals), Drug-like library (10,073 chemicals) and Lead-like library (10,041 chemicals) were custom assembled and purchased from commercial sources including Sigma, Microsource (Gaylordsville, CT), selleckchem (Houston, TX), ChemDiv (San Diego, CA), ChemBridge (San Diego, CA), Enamine (Monmouth Jct., NJ), and Life Chemicals (Niagara-on-the-Lake, ON, Canada). They were arrayed (10 mM in DMSO) in 384-well polypropylene compound plates with columns 1, 2, 13 and 14 empty which were reserved for controls.
The TR-FRET assay buffer with a formula of 50 mM Tris pH 7.5, 20 mM MgCl2, 0.1 mg/ml BSA and 1 mM DTT was freshly prepared before each experiment. All TR-FRET assays were performed in black 384-well plates with 20 μl/well assay volume in the TR-FRET assay buffer at room temperature (approximately 25° C.). All peptides or compounds were solubilized in DMSO. To test the competitive activity of peptides or compounds against the interaction between GST-MAGEA11 MHD and FAM-PCF11_4 peptide, 10 μl/well peptide or compound at specified concentration was dispensed into a black 384-well low volume plate, followed by 5 μl/well FAM-PCF11_4 (800 nM), 5 μl/well Tb-anti-GST (20 nM) and GST-MAGEA11 MHD (20 nM). The assay components in each well was then mixed by shaking the plate on an IKA MTS 2/4 digital microtiter plate shaker (IKA Works; Wilmington, NC, USA) at 900 RPM for 1 minute. The plate was further centrifuged in an Eppendorf 5810 centrifuge with an A-4-62 swing-bucket rotor (Eppendorf AG, Hamburg, Germany) at 201 g (1000 rpm) for 30 seconds. The plate was then incubated for 90 min with a lid to avoid light exposure to the assay components. After incubation, the fluorescent emission signals at 520 nm and 490 nm channels of individual wells were measured with a PHERAstar FS plate reader (BMG Labtech; Durham, NC, USA) by using a 340 nm excitation filter, 100 μs delay time, and 200 μs integration time. The TR-FRET fluorescence emission ratio (TR-FRET signal) for each well was presented as 10 000×520 nm/490 nm, which was used directly for curve fitting, or further converted to % Inhibition based on the respective positive and negative controls. The graphic software GraphPad Prism 4.81 (GraphPad Software; La Jolla, CA, USA) was used to generate curves and derive IC50 values of tested peptides or compounds, if applicable.
TR-FRET inhibitory activity characterization of a panel of PCF11 peptides against the interaction between GST-MAGEA11 MHD and FAM-PCF11_4 was performed as follows. In a 20 μl/well assay volume, dilutions of PCF11_1 to PCF11_8 peptides (concentrations ranged from 3.1 nM to 100 μM for peptides PCF11_4, PCF11_5, PCF11_6 and PCF11_8 in a 1-to-2 dilution pattern for 16 concentration levels, and ranged from 48.9 nM to 100 μM for peptides of PCF11_1, PCF11_2, PCF11_3 and PCF11_7 in a 1-to-2 dilution pattern for 12 concentration levels), 200 nM FAM-PCF11_4, 5 nM Tb-anti-GST and 5 nM GST-MAGEA11 were mixed together and incubated for 90 min before the TR-FRET signal for each well was measured. The final DMSO concentration was 1.1% (v/v). […] The signal of each peptide-treated well (Signalpeptide) was normalized to the positive and negative controls to derive % inhibition of the peptide at a specific concentration with equation 1. Where applicable, the % Inhibition data were fit into a Sigmoidal dose response equation to derive IC50 values.
TR-FRET screen for identifying MAGEA11 small molecule inhibitors was performed as follows.

Chain of interaction between GST-MAGEA11 MHD and FAM-PCF11_4 peptide (MAGE-A11:PCF11) (P43364 218-429): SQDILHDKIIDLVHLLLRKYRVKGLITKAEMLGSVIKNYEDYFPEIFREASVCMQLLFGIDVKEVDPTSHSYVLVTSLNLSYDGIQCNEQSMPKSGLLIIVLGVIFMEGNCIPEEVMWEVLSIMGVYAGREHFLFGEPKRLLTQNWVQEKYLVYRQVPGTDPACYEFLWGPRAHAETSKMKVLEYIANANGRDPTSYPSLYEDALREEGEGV

Structure (SMILES)	IC50
CCN1CCN(Cc2ccc3c(c2)c2ccccc2n3CC)CC1 [SJ000142875-1]	69.9 µM
c1cc(CNCCCNc2ccnc3cc(CC4CCCCC4)ccc23)c2c(c1)OCO2 [SJ000311252-1]	16 µM
COCC(C)NC(=O)Cn1cnc2cc(-c3ccc(Br)cc3)sc2c1=O (stereo not drawn) [SJ000427828-1]	69.9 µM
COc1ccc(-c2nc(C#N)c(N3CC(C)OC(C)C3)o2)cc1 (stereo not drawn) [SJ000478212-1]	69.9 µM
CC(=O)Nc1ccc(NC2=C(Cl)C(=O)c3ccccc3C2=O)cc1 [SJ000024922-1]	69.9 µM
Oc1ccccc1CNCCCNc1ccnc2cc(Cl)ccc12 [SJ000311187-1]	69.9 µM
Cc1cc(C)c(CNCCCNc2ccnc3cc(Cl)ccc23)c(C)c1 [SJ000520911-2]	68.1 µM
CCN1CCN(c2nc(N)c3ccccc3n2)CC1 [SJ000202571-1]	69.9 µM
Clc1ccc(Oc2ccc3c(NCCCNCc4cccc5c4OCO5)ccnc3c2)cc1 [SJ000311228-1]	17.7 µM
Fc1cccc(CNCCCNc2ccnc3cc(C(F)(F)F)ccc23)c1 [SJ000521066-1]	69.9 µM
COc1ccc(F)cc1CNCCCNc1ccnc2cc(Cc3cccc(C(F)(F)F)c3)ccc12 [SJ000311301-2]	22.1 µM
CCCn1cnc2cc(-c3ccc(Cl)cc3)sc2c1=O [SJ000452142-1]	69.9 µM
CC(C)(C)c1ccc(C2=C(c3ccc([N+](=O)[O-])cc3)C(=O)OC2)cc1 [SJ000368097-1]	69.9 µM
COc1cc(Cc2ccc3c(NCCCNCc4cccc5c4OCO5)ccnc3c2)cc(OC)c1 [SJ000311312-1]	31.3 µM
CCCCn1c(=O)[nH]c(=O)c2c1nc(-c1cccc(F)c1)n2CC [SJ000414469-1]	69.9 µM
CC(=O)NC1=C(N)C(=O)c2ccccc2C1=O [SJ000053101-1]	69.9 µM
COc1ccc(-c2cc3ncn(CC(=O)O)c(=O)c3s2)cc1 [SJ000397503-1]	69.9 µM
COc1ccc(F)cc1CNCCCNc1ccnc2cc(Oc3ccc(C(C)(C)C)cc3)ccc12 [SJ000311237-1]	6.29 µM
Nc1ccccc1CNCCCNc1ccnc2cc(Cl)ccc12 [SJ000523055-1]	69.9 µM
COP(=O)(OC)c1nc(-c2ccc(C)cc2)oc1N1CCOCC1 [SJ000090156-1]	69.9 µM
CCCN1C(=O)c2ccccc2NC1c1ccc(OC)c(CSc2ccccn2)c1 (stereo not drawn) [SJ000288444-1]	69.9 µM
CCCn1c(=O)[nH]c(=O)c2c1nc(-c1ccc(OC)cc1)n2CCOC [SJ000423271-1]	69.9 µM
CN(C)c1ccc(-c2nc3c(c(=O)[nH]c(=O)n3Cc3ccccc3)n2C)cc1 [SJ000396262-1]	69.9 µM
Cc1cccc(CNCCCNc2ccnc3cc(Cl)ccc23)c1 [SJ000523066-1]	69.9 µM
Cc1ccc(S(=O)(=O)c2nc(-c3ccc(F)cc3)oc2N2CCOCC2)cc1 [SJ000230854-1]	11.7 µM

Same assay, conditions: Table 5, dose response TR-FRET screening of 59 quinoline compounds against MAGE-A11:PCF11; read-out: TR-FRET IC50

Structure (SMILES)	IC50
CCC(C)CN(CCCCNc1ccnc2cc(Cl)ccc12)Cc1ccccc1 (stereo not drawn) [SJ000361208-2]	> 70 µM
Clc1ccc2c(NCCCNCc3ccc[nH]3)ccnc2c1 [SJ000575192-1]	22.8 µM

Same assay, conditions: Table 8, representative compounds; read-out: TR-FRET IC50

Structure (SMILES)	IC50
Clc1ccc2c(NCCCNCc3ccc4c(c3)OCO4)ccnc2c1 [SJ000523056]	69.9 µM
COc1ccc(Oc2ccc3c(NCCCNCc4cccc(OC)c4O)ccnc3c2)cc1 [SJ000311219]	29.1 µM
Fc1ccc(Cc2ccc3c(NCCCNCc4cccc5c4OCO5)ccnc3c2)c(Cl)c1 [SJ000311324]	20.6 µM
COc1ccc(Oc2ccc3c(NCCCNCc4cccc5c4OCO5)ccnc3c2)cc1 [SJ000311220]	43.7 µM
FC(F)(F)c1cccc(CNCCCNc2ccnc3cc(Cl)ccc23)c1 [SJ000521024]	69.9 µM
COc1cccc(CNCCCNc2ccnc3cc(Cc4ccc(F)cc4Cl)ccc23)c1O [SJ000311323]	17.6 µM
COc1cccc(CNCCCNc2ccnc3cc(CCc4ccccc4)ccc23)c1O [SJ000311255]	26.6 µM
COc1cc(Cc2ccc3c(NCCCNCc4cccc(OC)c4O)ccnc3c2)cc(OC)c1 [SJ000311311]	33.6 µM
COc1ccc(CNCCCNc2ccnc3cc(Cl)ccc23)cc1 [SJ000523059]	69.9 µM

— US20240246941A1, “SUBSTITUTED 4-(3-AMINOPROP-1-YL)AMINOQUINOLINE ANALOGS AS MODULATORS OF MELANOMA-ASSOCIATED ANTIGEN 11 UBIQUITIN LIGASE” (ST. JUDE CHILDREN'S RESEARCH HOSPITAL, INC., priority 2020, published 2024)
